Data reported in ChEMBL document CHEMBL1155890, “Synthesis of scyllo-inositol derivatives and their effects on amyloid beta peptide aggregation” (Bioorg Med Chem, 2008).
Calls of active or inactive are those of the source. The rule behind the calls is not given here.

Assays:
[1] = Effect on amyloid beta 42 aggregation assessed as inhibition of fiber formation at 5 mM
[2] = Effect on amyloid beta 42 aggregation assessed as inhibition of fiber formation at 3 mM

Row | Compound | Activity [1] | Activity [2]
1 | O[C@@H]1[C@@H](O)[C@H](F)[C@@H](O)[C@H](O)[C@H]1F | inactive | –
2 | CO[C@H]1[C@H](O)[C@@H](O)[C@H](O)[C@@H](O)[C@@H]1O | inactive | –
3 | O[C@H]1[C@H](O)[C@@H](O)[C@H](O)[C@@H](O)[C@@H]1O | – | Active
4 | O[C@@H]1[C@@H](O)[C@H](Cl)[C@@H](O)[C@H](O)[C@H]1Cl | inactive | –
5 | O[C@@H]1[C@@H](O)[C@H](O)C[C@H](O)[C@H]1O | inactive | –
6 | O[C@@H]1[C@@H](O)[C@H](O)[C@@H](Cl)[C@H](O)[C@H]1O | inactive | –
7 | O[C@@H]1C[C@H](O)[C@@H](O)C[C@H]1O | inactive | –
